biological target: T1, HDM2 (Homo sapiens, UniProt Q00987); experiment: HDM2 FRET assay (inhibition of binding of FITC labeled p53-pocket peptide to HDM2); conditions: Table 9; read-out: FRET IC50
T1 construct: Thioredoxin (N); made in house; host or cells: E. coli strain BL21(DE3)Rosetta
Outline: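 Compounds were tested in 10-point serial dilution against 0.5 nM recombinant HDM2 binding 3 nM fluorescein-labeled p53-pocket peptide. Detection used 0.25 nM terbium cryptate anti-6xHis antibody in PBS buffer containing 0.01% BSA and 0.01% Tween-20.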

T1 sequence (Q00987 17-125): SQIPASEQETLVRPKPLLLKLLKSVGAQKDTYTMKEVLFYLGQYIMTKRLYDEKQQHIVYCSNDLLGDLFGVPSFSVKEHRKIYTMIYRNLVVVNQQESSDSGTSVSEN

Row | SMILES | IC50
1 | C[C@@H](Nc1nc(C(=O)O)nc2nc(N3CCCC3c3ccccc3)n(Cc3ccc(C(F)(F)F)cc3)c12)C1CCC1 (stereo partly drawn) [Example 9.52, 6-{[(1R)-1-cyclobutylethyl]amino}-8-(2-phenylpyrrolidin-1-yl)-7-[4-(trifluoromethyl)benzyl]-7H-purine-2-carboxylic acid] | 31.9 nM
2 | C[C@@H](Nc1nc(C(=O)O)nc2nc(N3CCCCC3c3ccccn3)n(Cc3ccc(C(F)(F)F)cc3)c12)C1CCC1 (stereo partly drawn) [Example 9.53, 6-{[(1R)-1-cyclobutylethyl]amino}-8-(2-pyridin-2-ylpiperidin-1-yl)-7-[4-(trifluoromethyl)benzyl]-7H-purine-2-carboxylic acid] | 26.4 nM
3 | C[C@@H](Nc1nc(C(=O)O)nc2nc(N3CCC3c3ccccc3)n(Cc3ccc(C(F)(F)F)cc3)c12)C1CCC1 (stereo partly drawn) [Example 9.54, 6-{[(1R)-1-cyclobutylethyl]amino}-8-(2-phenylazetidin-1-yl)-7-[4-(trifluoromethyl)benzyl]-7H-purine-2-carboxylic acid] | 23.9 nM
4 | C[C@@H](Nc1nc(-c2noc(=O)[nH]2)nc2nc(N3CCOC[C@H]3c3ccccc3)n(Cc3ccc(C(F)(F)F)cc3)c12)C1CCC1 [Example 9.57, 3-(6-{[(1R)-1-cyclobutylethyl]amino}-8-[(3R)-3-phenylmorpholin-4-yl]-7-[4-(trifluoromethyl)benzyl]-7H-purin-2-yl)-1,2,4-oxadiazol-5(4H)-one] | 1.72 nM
5 | CC[C@@H](c1ccccc1)N(C)c1nc2nc(C(=O)O)nc(N[C@H](C)C3CCC3)c2n1Cc1ccc(C(F)(F)F)cc1 [Example 9.58, 6-{[(1R)-1-cyclobutylethyl]amino}-8-{methyl[(1S)-1-phenylpropyl]amino}-7-[4-(trifluoromethyl)benzyl]-7H-purine-2-carboxylic acid] | 16.4 nM
6 | Cc1cc(C)n(-c2nc3nc(C(=O)O)nc(N[C@H](C)C4CCC4)c3n2Cc2ccc(C(F)(F)F)cc2)n1 [Example 9.59, 6-{[(1R)-1-cyclobutylethyl]amino}-8-(3,5-dimethyl-1H-pyrazol-1-yl)-7-[4-(trifluoromethyl)benzyl]-7H-purine-2-carboxylic acid] | 292 nM
7 | C[C@@H](Nc1nc(C(=O)O)nc2nc(N3CCCC3c3cccc(F)c3)n(Cc3ccc(C(F)(F)F)cc3)c12)C1CCC1 (stereo partly drawn) [Example 9.60, 6-{[(1R)-1-cyclobutylethyl]amino}-8-[2-(3-fluorophenyl)pyrrolidin-1-yl]-7-[4-(trifluoromethyl)benzyl]-7H-purine-2-carboxylic acid] | 10.2 nM
8 | Cc1cc(-c2ccccc2)nn1-c1nc2nc(C(=O)O)nc(N[C@H](C)C3CCC3)c2n1Cc1ccc(C(F)(F)F)cc1 [Example 9.61, 6-{[(1R)-1-cyclobutylethyl]amino}-8-(5-methyl-3-phenyl-1H-pyrazol-1-yl)-7-[4-(trifluoromethyl)benzyl]-7H-purine-2-carboxylic acid] | 300 nM
9 | C[C@@H](Nc1nc(C(=O)O)nc2nc(N3CCCC[C@@H]3c3ccccc3)n(Cc3ccc(C(F)(F)F)cc3)c12)C1CCC1 [Example 9.62, 6-{[(1R)-1-cyclobutylethyl]amino}-8-[(2R)-2-phenylpiperidin-1-yl]-7-[4-(trifluoromethyl)benzyl]-7H-purine-2-carboxylic acid] | 17.3 nM
10 | C[C@@H](Nc1nc(C(=O)O)nc2nc(N3CCCC[C@H]3c3ccccc3)n(Cc3ccc(C(F)(F)F)cc3)c12)C1CCC1 [Example 9.63, 6-{[(1R)-1-cyclobutylethyl]amino}-8-[(2S)-2-phenylpiperidin-1-yl]-7-[4-(trifluoromethyl)benzyl]-7H-purine-2-carboxylic acid] | 3.06 nM
11 | CC(C)CC1COCCN1c1nc2nc(C(=O)O)nc(N[C@H](C)C3CCC3)c2n1Cc1ccc(C(F)(F)F)cc1 (stereo partly drawn) [Example 9.66, 6-{[(1R)-1-cyclobutylethyl]amino}-8-[3-(2-methylpropyl)morpholin-4-yl]-7-[4-(trifluoromethyl)benzyl]-7H-purine-2-carboxylic acid] | 6.07 nM
12 | C[C@@H](Nc1nc(-c2noc(=O)[nH]2)nc2nc(N3CCCCC3c3ccccc3)n(Cc3ccc(C(F)(F)F)cc3)c12)C1CCC1 (stereo partly drawn) [Example 9.67, 3-(6-{[(1R)-1-cyclobutylethyl]amino}-8-(2-phenylpiperidin-1-yl)-7-[4-(trifluoromethyl)benzyl]-7H-purin-2-yl)-1,2,4-oxadiazol-5(4H)-one] | 12.7 nM
13 | C[C@@H](Nc1nc(C(=O)O)nc2nc(N3CCCCC3Cc3cccc(C(F)(F)F)c3)n(Cc3ccc(C(F)(F)F)cc3)c12)C1CCC1 (stereo partly drawn) [Example 9.68, 6-{[(1R)-1-cyclobutylethyl]amino}-7-[4-(trifluoromethyl)benzyl]-8-{2-[3-(trifluoromethyl)benzyl]piperidin-1-yl}-7H-purine-2-carboxylic acid] | 110 nM
14 | C[C@@H](Nc1nc(C(=O)O)nc2nc(N3CCCCC3Cc3ccc(F)cc3)n(Cc3ccc(C(F)(F)F)cc3)c12)C1CCC1 (stereo partly drawn) [Example 9.69, 6-{[(1R)-1-cyclobutylethyl]amino}-8-[2-(4-fluorobenzyl)piperidin-1-yl]-7-[4-(trifluoromethyl)benzyl]-7H-purine-2-carboxylic acid] | 7.92 nM
15 | COc1ccc(C2CCCCN2c2nc3nc(C(=O)O)nc(N[C@H](C)C4CCC4)c3n2Cc2ccc(C(F)(F)F)cc2)cc1 (stereo partly drawn) [Example 9.70, 6-{[(1R)-1-cyclobutylethyl]amino}-8-[2-(4-methoxyphenyl)piperidin-1-yl]-7-[4-(trifluoromethyl)benzyl]-7H-purine-2-carboxylic acid] | 9.29 nM
16 | CCC(c1ccccc1)N(C)c1nc2nc(-c3noc(=O)[nH]3)nc(N[C@H](C)C3CCC3)c2n1Cc1ccc(C(F)(F)F)c(F)c1 (stereo partly drawn) [Example 9.71, 3-(6-{[(1R)-1-cyclobutylethyl]amino}-7-[3-fluoro-4-(trifluoromethyl)benzyl]-8-[methyl(1-phenylpropyl)amino]-7H-purin-2-yl)-1,2,4-oxadiazol-5(4H)-one] | 18.1 nM
17 | CC(c1ccccn1)N(C)c1nc2nc(-c3noc(=O)[nH]3)nc(N[C@H](C)C3CCC3)c2n1Cc1ccc(C(F)(F)F)c(F)c1 (stereo partly drawn) [Example 9.72, 3-(6-{[(1R)-1-cyclobutylethyl]amino}-7-[3-fluoro-4-(trifluoromethyl)benzyl]-8-[methyl(1-pyridin-2-ylethyl)amino]-7H-purin-2-yl)-1,2,4-oxadiazol-5(4H)-one] | 4.64 nM
18 | CC(c1cccc(F)c1)N(C)c1nc2nc(-c3noc(=O)[nH]3)nc(N[C@H](C)C3CCC3)c2n1Cc1ccc(C(F)(F)F)c(F)c1 (stereo partly drawn) [Example 9.73, 3-(6-{[(1R)-1-cyclobutylethyl]amino}-8-{[1-(3-fluorophenyl)ethyl](methyl)amino}-7-[3-fluoro-4-(trifluoromethyl)benzyl]-7H-purin-2-yl)-1,2,4-oxadiazol-5(4H)-one] | 16.2 nM
19 | C[C@@H](Nc1nc(C(=O)O)nc2nc(N3CCCC34CCc3ccccc34)n(Cc3ccc(C(F)(F)F)cc3)c12)C1CCC1 (stereo partly drawn) [Example 9.74, 6-{[(1R)-1-cyclobutylethyl]amino}-8-(2,3-dihydro-1'H-spiro[indene-1,2'-pyrrolidin]-1'-yl)-7-[4-(trifluoromethyl)benzyl]-7H-purine-2-carboxylic acid] | 12.9 nM
20 | CC(Nc1nc2nc(-c3noc(=O)[nH]3)nc(N[C@H](C)C3CCC3)c2n1Cc1ccc(C(F)(F)F)cc1)c1ccccn1 (stereo partly drawn) [Example 9.75, 3-(6-{[(1R)-1-cyclobutylethyl]amino}-8-[(1-pyridin-2-ylethyl)amino]-7-[4-(trifluoromethyl)benzyl]-7H-purin-2-yl)-1,2,4-oxadiazol-5(4H)-one] | 8.12 nM
